Assay results from US11685732B2, “MYST family histone acetyltransferase inhibitors” (Epizyme, Inc., priority 2017, dated 2023).
pIC50: −log10 of the molar value.

Legend:
KAT-6A = KAT-6A (Homo sapiens (Human), UniProt Q92794); experiment: KAT-6A biochemical inhibition assay (SAMDI mass spectrometry)
Summary of the method: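 Enzyme (12.5 nM final) pre-incubated with serially diluted compounds (2% DMSO final) in 50 mM Tris pH 8.0 with Tween20, gelatin and 1 mM DTT. Reaction started with 1 μM peptide substrate and 1 μM acetyl-CoA, run 90 min at 25 °C, quenched with 0.5% formic acid, read by SAMDI-TOF mass spectrometry; IC50 derived.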

KAT-5 = KAT-5 (Homo sapiens (Human), UniProt Q92993); experiment: KAT-5 biochemical inhibition assay (SAMDI mass spectrometry)
KAT-5, sequence (Q92993 other isoform, or with tags, fused parts or gaps): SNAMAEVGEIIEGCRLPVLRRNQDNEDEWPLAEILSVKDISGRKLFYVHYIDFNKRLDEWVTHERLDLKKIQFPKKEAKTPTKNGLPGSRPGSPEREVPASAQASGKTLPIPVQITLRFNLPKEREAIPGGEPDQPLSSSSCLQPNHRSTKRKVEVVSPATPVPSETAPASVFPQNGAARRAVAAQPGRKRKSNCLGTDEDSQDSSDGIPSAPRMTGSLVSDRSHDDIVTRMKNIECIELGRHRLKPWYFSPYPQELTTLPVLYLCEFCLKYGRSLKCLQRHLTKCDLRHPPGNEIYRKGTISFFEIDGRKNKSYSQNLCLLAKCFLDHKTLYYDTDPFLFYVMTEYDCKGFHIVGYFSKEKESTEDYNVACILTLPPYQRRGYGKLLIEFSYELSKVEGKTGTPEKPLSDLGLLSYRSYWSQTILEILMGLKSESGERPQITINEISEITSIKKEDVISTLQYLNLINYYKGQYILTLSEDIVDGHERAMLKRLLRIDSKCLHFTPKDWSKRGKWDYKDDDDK
Summary of the method: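 KAT-5 at 9 nM final was preincubated with serially diluted compound (2% DMSO) in 50 mM Tris pH 8.0 with 1 mM DTT. Reaction ran with 1 μM peptide substrate and 0.5 μM acetyl-CoA for 90 min at 25° C, was quenched with 0.5% formic acid, and was read by SAMDI-TOF mass spectrometry.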

KAT-8 = KAT-8 (Homo sapiens (Human), UniProt Q9H7Z6); experiment: KAT-8 biochemical inhibition assay (SAMDI mass spectrometry)
KAT-8, sequence (Q9H7Z6 other isoform, or with tags, fused parts or gaps): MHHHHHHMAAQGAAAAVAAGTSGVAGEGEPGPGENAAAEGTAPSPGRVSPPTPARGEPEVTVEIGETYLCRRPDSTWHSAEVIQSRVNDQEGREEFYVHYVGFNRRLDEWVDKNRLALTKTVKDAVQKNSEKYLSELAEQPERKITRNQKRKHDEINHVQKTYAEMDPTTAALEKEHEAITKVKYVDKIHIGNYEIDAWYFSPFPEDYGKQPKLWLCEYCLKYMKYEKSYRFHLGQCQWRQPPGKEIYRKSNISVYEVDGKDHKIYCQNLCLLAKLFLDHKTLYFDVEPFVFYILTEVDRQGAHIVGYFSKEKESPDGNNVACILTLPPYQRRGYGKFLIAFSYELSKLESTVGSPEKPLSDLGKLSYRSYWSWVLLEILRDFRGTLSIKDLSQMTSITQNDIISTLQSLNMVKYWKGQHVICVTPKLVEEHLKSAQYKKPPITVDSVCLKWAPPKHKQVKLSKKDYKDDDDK
Summary of the method: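 Compounds in 2% DMSO pre-incubated with 12.5 nM enzyme in 50 mM Tris pH 8.0 with Tween20, gelatin and 1 mM DTT. Then 1 μM peptide and 5 μM acetyl-CoA were added, 90 min at 25 °C; formic acid stop and SAMDI-TOF mass spectrometry for IC50.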

KAT-7 = KAT-7 (Homo sapiens (Human), UniProt O95251); experiment: KAT-7 biochemical inhibition assay (SAMDI mass spectrometry)
KAT-7, sequence (O95251 other isoform, or with tags, fused parts or gaps): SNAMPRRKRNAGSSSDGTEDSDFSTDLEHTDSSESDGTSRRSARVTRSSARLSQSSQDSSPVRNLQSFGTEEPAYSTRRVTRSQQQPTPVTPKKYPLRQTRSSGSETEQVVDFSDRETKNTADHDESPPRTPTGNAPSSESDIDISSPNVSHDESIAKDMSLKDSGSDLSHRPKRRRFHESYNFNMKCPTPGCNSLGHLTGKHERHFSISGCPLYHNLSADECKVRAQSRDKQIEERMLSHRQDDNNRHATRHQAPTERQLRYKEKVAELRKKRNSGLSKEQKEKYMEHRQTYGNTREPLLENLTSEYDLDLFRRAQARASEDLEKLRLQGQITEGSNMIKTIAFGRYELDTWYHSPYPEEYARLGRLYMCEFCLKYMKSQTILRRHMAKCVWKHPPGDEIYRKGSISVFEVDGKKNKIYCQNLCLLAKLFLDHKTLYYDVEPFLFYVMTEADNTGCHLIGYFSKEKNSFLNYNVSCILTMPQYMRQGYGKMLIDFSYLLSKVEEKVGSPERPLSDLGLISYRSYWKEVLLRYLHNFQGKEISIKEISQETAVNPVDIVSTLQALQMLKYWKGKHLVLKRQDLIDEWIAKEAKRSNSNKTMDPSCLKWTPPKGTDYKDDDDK
Summary of the method: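 KAT-7 (6 nM) was pre-incubated with serially diluted compound (2% DMSO) in Tris pH 8.0 with DTT. Reaction with 1 μM peptide and 2 μM acetyl-CoA ran 120 min at 25 °C and was stopped with 0.5% formic acid. Acetylation was read by SAMDI-TOF mass spectrometry to give IC50.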

KAT-6A, sequence (Q92794 other isoform, or with tags, fused parts or gaps): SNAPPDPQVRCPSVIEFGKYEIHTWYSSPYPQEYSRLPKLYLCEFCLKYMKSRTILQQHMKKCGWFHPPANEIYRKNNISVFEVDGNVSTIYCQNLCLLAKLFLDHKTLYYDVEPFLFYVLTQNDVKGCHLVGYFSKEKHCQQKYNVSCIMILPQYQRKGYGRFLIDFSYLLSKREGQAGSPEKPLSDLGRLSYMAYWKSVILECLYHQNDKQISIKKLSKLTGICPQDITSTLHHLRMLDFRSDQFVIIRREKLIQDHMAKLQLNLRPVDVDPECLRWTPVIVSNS

SMILES	pIC50 (KAT-6A)	pIC50 (KAT-5)	pIC50 (KAT-8)	pIC50 (KAT-7)
CCNC(=O)NC1CCC(CS(=O)(=O)NNC(=O)c2cc(-c3cn(C)cn3)cc(Cl)c2F)C1 (stereo not drawn) [Compound I-286]	> 5.00	> 5.00	4.30 to 5.00	> 5.00
CCNC(=O)N[C@H]1CCC[C@@H](CS(=O)(=O)NNC(=O)c2cc(-c3cn(C)cn3)cc(Cl)c2F)C1 [Compound I-287]	> 5.00	> 5.00	4.30 to 5.00	> 5.00
Cn1cnc(-c2cc(Cl)c(F)c(C(=O)NNS(=O)(=O)C[C@H]3CCC[C@H](OCc4ccccc4)C3)c2)c1 [Compound I-288]	> 5.00	> 5.00	4.30 to 5.00	> 5.00
Cn1cnc(-c2cc(Cl)c(F)c(C(=O)NNS(=O)(=O)CC3CC4CC4C3)c2)c1 (stereo not drawn) [Compound I-289]	> 5.00	> 5.00	4.30 to 5.00	> 5.00
Cn1cnc(-c2cc(Cl)c(F)c(C(=O)NNS(=O)(=O)C[C@H]3CCC[C@@H](OCc4ccccc4)C3)c2)c1 [Compound I-290]	4.30 to 5.00	> 5.00	4.30 to 5.00	> 5.00
CCN(C)C(=O)NC1CCC(CS(=O)(=O)NNC(=O)c2cc(-c3cn(C)cn3)cc(Cl)c2F)C1 (stereo not drawn) [Compound I-291]	4.30 to 5.00	> 5.00	4.30 to 5.00	> 5.00
CN(C)C(=O)N(C)C1CCCC(CS(=O)(=O)NNC(=O)c2cc(-c3cn(C)cn3)cc(Cl)c2F)C1 (stereo not drawn) [Compound I-292]	> 5.00	> 5.00	4.30 to 5.00	> 5.00
CCNC(=O)N(C)C1CCCC(CS(=O)(=O)NNC(=O)c2cc(-c3cn(C)cn3)cc(Cl)c2F)C1 (stereo not drawn) [Compound I-293]	> 5.00	> 5.00	4.30 to 5.00	> 5.00
CCC(=O)N(C)C1CCCC(CS(=O)(=O)NNC(=O)c2cc(-c3cn(C)cn3)cc(Cl)c2F)C1 (stereo not drawn) [Compound I-294]	> 5.00	> 5.00	4.30 to 5.00	> 5.00
CN(C(=O)C1CCC1)C1CCCC(CS(=O)(=O)NNC(=O)c2cc(-c3cn(C)cn3)cc(Cl)c2F)C1 (stereo not drawn) [Compound I-295]	> 5.00	> 5.00	4.30 to 5.00	> 5.00
CN(C(=O)OC(C)(C)C)C1CCC(CS(=O)(=O)NNC(=O)c2cc(-c3cn(C)cn3)cc(Cl)c2F)CC1 (stereo not drawn) [Compound I-296]	> 5.00	> 5.00	4.30 to 5.00	> 5.00
CNC1CCC(CS(=O)(=O)NNC(=O)c2cc(-c3cn(C)cn3)cc(Cl)c2F)CC1 (stereo not drawn) [Compound I-297]	4.30 to 5.00	4.30 to 5.00	4.30 to 5.00	> 5.00
Cn1cnc(-c2cc(Cl)c(F)c(C(=O)NNS(=O)(=O)C[C@H]3C[C@H]4CC[C@@H]3O4)c2)c1 [Compound I-298]	> 5.00	> 5.00	4.30 to 5.00	> 5.00
Cn1cnc(-c2cc(Cl)c(F)c(C(=O)NNS(=O)(=O)C[C@@H]3C[C@H]4CC[C@@H]3O4)c2)c1 [Compound I-299]	> 5.00	> 5.00	4.30 to 5.00	> 5.00
Cn1cnc(-c2cc(Cl)c(F)c(C(=O)NNS(=O)(=O)C[C@H]3CCC[C@@H](O)C3)c2)c1 [Compound I-300]	> 5.00	> 5.00	4.30 to 5.00	> 5.00
Cn1cnc(-c2cc(Cl)c(F)c(C(=O)NNS(=O)(=O)c3cccnc3)c2)c1 [Compound I-301]	> 5.00	4.30 to 5.00	4.30 to 5.00	> 5.00
CC1CCCC(CS(=O)(=O)NNC(=O)c2cc(-c3cn(C)cn3)cc(Cl)c2F)C1 (stereo not drawn) [Compound I-302]	> 5.00	> 5.00	4.30 to 5.00	> 5.00
CC1CCN(C(=O)OC(C)(C)C)CC1CS(=O)(=O)NNC(=O)c1cc(-c2cn(C)cn2)cc(Cl)c1F (stereo not drawn) [Compound I-303]	4.30 to 5.00	> 5.00	4.30 to 5.00	> 5.00
Cn1cnc(-c2cc(Cl)c(F)c(C(=O)NNS(=O)(=O)c3cscn3)c2)c1 [Compound I-304]	> 5.00	> 5.00	4.30 to 5.00	> 5.00
Cn1cnc(-c2ccc(F)c(C(=O)NNS(=O)(=O)C[C@H]3CCC[C@H](O)C3)c2)c1 [Compound I-305]	4.30 to 5.00	4.30 to 5.00	4.30 to 5.00	> 5.00
Cn1cnc(-c2cc(Cl)c(F)c(C(=O)NNS(=O)(=O)C[C@H]3CCC[C@H](O)C3)c2)c1 [Compound I-306]	> 5.00	> 5.00	4.30 to 5.00	> 5.00

SMILES	pIC50 (KAT-6A)	pIC50 (KAT-5)	pIC50 (KAT-8)	pIC50 (KAT-7)
CC1CCNCC1CS(=O)(=O)NNC(=O)c1cc(-c2cn(C)cn2)cc(Cl)c1F (stereo not drawn) [Compound I-307]	4.30 to 5.00	4.30 to 5.00	4.30 to 5.00	4.30 to 5.00
Cn1cnc(-c2cc(Cl)c(F)c(C(=O)NNS(=O)(=O)CC3CC4CCC3C4)c2)c1 (stereo not drawn) [Compound I-308]	> 5.00	> 5.00	> 5.00	> 5.00
Cn1cnc(-c2cc(Cl)c(F)c(C(=O)NNS(=O)(=O)c3ccccc3Cl)c2)c1 [Compound I-309]	> 5.00	> 5.00	4.30 to 5.00	> 5.00
CN1CCN([C@H]2CC[C@@H](CS(=O)(=O)NNC(=O)c3cc(-c4cn(C)cn4)cc(Cl)c3F)CC2)C1=O [Compound I-310]	> 5.00	> 5.00	4.30 to 5.00	> 5.00
CNC(=O)Cn1nc(-c2cc(Cl)c(F)c(C(=O)NNS(=O)(=O)CC3CCCCC3)c2)cc1C [Compound I-311]	4.30 to 5.00	> 5.00	4.30 to 5.00	> 5.00
CN1CCN([C@H]2C[C@H](CS(=O)(=O)NNC(=O)c3cc(-c4cn(C)cn4)cc(Cl)c3F)C2)C1=O [Compound I-312]	> 5.00	> 5.00	4.30 to 5.00	> 5.00
CC1CCC(CS(=O)(=O)NNC(=O)c2cc(-c3cn(C)cn3)cc(Cl)c2F)CC1 (stereo not drawn) [Compound I-313]	> 5.00	> 5.00	4.30 to 5.00	> 5.00
CN(C)C(=O)CS(=O)(=O)NNC(=O)c1cc(-c2cn(C)cn2)cc(Cl)c1F [Compound I-314]	4.30 to 5.00	4.30 to 5.00	4.30 to 5.00	> 5.00
Cn1cnc(-c2cc(Cl)c(F)c(C(=O)NNS(=O)(=O)c3ccc(F)cc3)c2)c1 [Compound I-316]	> 5.00	> 5.00	4.30 to 5.00	> 5.00
CN(C(=O)C1CCC1)C1CCC(CS(=O)(=O)NNC(=O)c2cc(-c3cn(C)cn3)cc(Cl)c2F)CC1 (stereo not drawn) [Compound I-317]	> 5.00	> 5.00	4.30 to 5.00	> 5.00
CN1CCN([C@H]2CC[C@H](CS(=O)(=O)NNC(=O)c3cc(-c4cn(C)cn4)cc(Cl)c3F)CC2)C1=O [Compound I-319]	> 5.00	> 5.00	4.30 to 5.00	> 5.00
Cn1cnc(-c2cc(Cl)c(F)c(C(=O)NNS(=O)(=O)c3cccc(F)c3)c2)c1 [Compound I-320]	> 5.00	> 5.00	4.30 to 5.00	> 5.00
COc1ccccc1S(=O)(=O)NNC(=O)c1cc(-c2cn(C)cn2)cc(Cl)c1F [Compound I-321]	> 5.00	> 5.00	4.30 to 5.00	> 5.00
COc1cccc(S(=O)(=O)NNC(=O)c2cc(-c3cn(C)cn3)cc(Cl)c2F)c1 [Compound I-322]	> 5.00	> 5.00	4.30 to 5.00	> 5.00
Cn1cnc(-c2cc(Cl)c(F)c(C(=O)NNS(=O)(=O)c3ccc(Cl)cc3)c2)c1 [Compound I-323]	> 5.00	> 5.00	4.30 to 5.00	> 5.00
Cn1cnc(-c2cc(Cl)c(F)c(C(=O)NNS(=O)(=O)c3cccc(Cl)c3)c2)c1 [Compound I-324]	> 5.00	> 5.00	4.30 to 5.00	> 5.00
CN1CCN([C@H]2C[C@@H](CS(=O)(=O)NNC(=O)c3cc(-c4cn(C)cn4)cc(Cl)c3F)C2)C1=O [Compound I-325]	> 5.00	> 5.00	4.30 to 5.00	> 5.00
CCC(=O)N(C)C1CCC(CS(=O)(=O)NNC(=O)c2cc(-c3cn(C)cn3)cc(Cl)c2F)CC1 (stereo not drawn) [Compound I-326]	> 5.00	> 5.00	4.30 to 5.00	> 5.00
COc1ccc(CNC(=O)NC2CCC(CS(=O)(=O)NNC(=O)c3cc(-c4cn(C)cn4)cc(Cl)c3F)C2)cc1 (stereo not drawn) [Compound I-327]	> 5.00	> 5.00	4.30 to 5.00	> 5.00
Cn1cnc(-c2cc(Cl)c(F)c(C(=O)NNS(=O)(=O)CC(=O)N3CCCC3)c2)c1 [Compound I-328]	4.30 to 5.00	4.30 to 5.00	4.30 to 5.00	> 5.00
CO[C@H]1CC[C@H](CS(=O)(=O)NNC(=O)c2cc(-c3cn(C)cn3)cc(Cl)c2F)CC1 [Compound I-329]	> 5.00	> 5.00	4.30 to 5.00	> 5.00
